The values below come from US20030162782A1, “Treatment of neuropathy” (priority 1999, published 2003).

Series [1] concerns men demonstrating positive symptoms of diabetic neuropathy. In words: Clinical trial of sildenafil versus placebo (crossover) with pain assessments (PDI, VAS Pain Score, Verbal Evaluation of Pain Relief). The following applies: 50 mg every night for 10 days, pain assessed by PDI, VAS Pain Score and Verbal Evaluation of Pain Relief. The format is in vivo, human. On the procedure:
The study was conducted using sidenafil, however it will be appreciated that the study may be conducted with other cGMP PDE5 inhibitors, for example one or more of the preferred cGMP PDE5 inhibitors listed hereinabove.
The patients then underwent a 7-day treatment-free phase in order to establish baseline data, including a series of pain assessments comprising determining the Pain Disability Index (PDI) (adapted from Tait et al 1990), the Visual Analogue Scale (VAS) Pain Score, and the Verbal Evaluation of Pain Relief. They were then treated with either sildenafil (50 mg) or placebo every night for 10 days and immediately after this period the patient's degree of pain was reassessed. A washout period of 10 days followed where the patients received no treatment. […] Immediately after this period the patient's degree of pain was assessed.
Pain Disability Index (PDI) is determined by patient questionnaire, and measures the overall impact of pain (on a scale of 0 to 10) associated with normal daily activities, (i.e. family/home responsibilities, recreation, social activity, occupation, self-care, sleeping). […]
Visual Analogue Scale (VAS) Pain Score is determined by the patient indicating on a continuous line from 0 (=no pain) to 100 (=pain as bad as it could be) the average level of a pain experienced during the assessment period. […]

For series [2], the system named is patients with diabetic polyneuropathy. Description: Anecdotal reports in patients with diabetic polyneuropathy after single doses of sildenafil. The class given is in vivo, human. The following applies: single doses of 50 mg.

Take `CCCOc1ncc(C(C)=O)cc1-c1nc2c(CC)n(C3CN(C(C)C)C3)nc2c(=O)[nH]1` [Example 4, 5-(5-Acetyl-2-propoxy-3-pyridinyl)-3-ethyl-2-(1-isopropyl-3-azetidinyl)-2,6-dihydro-7H-pyrazolo[4,3-d]pyrimidin-7-one]: the melting point fell in the range of 162.8 to 163.6 °C.

For the molecule `CCCc1nn(C)c2c(=O)[nH]c(-c3cc(S(=O)(=O)N4CCN(C)CC4)ccc3OCC)nc12` [sildenafil, 5-[2-ethoxy-5-(4-methyl-1-piperazinylsulphonyl)phenyl]-1-methyl-3-n-propyl-1,6-dihydro-7H-pyrazolo[4,3-d]pyrimidin-7-one], in series [1], the “degree of pain experienced” value is given as “reduction in the degree of pain experienced in a number of patients”. The painful symptoms result in series [2] was “improvement in painful symptoms”.

For orientation: melting point means the temperature, or range, at which the solid turns liquid.
